Experimental data: the supplement of paper PMC10307832

Tests used:
Test in all cases: relative viability (nuclei count vs DMSO), 5 days (fraction); higher = more cells survive
[1] = compound: COc1cc(Nc2ncc(F)c(Nc3ccc4c(n3)NC(=O)C(C)(C)O4)n2)cc(OC)c1OC [R406] + C[C@@H](Oc1cc(-c2cnn(C3CCNCC3)c2)cnc1N)c1c(Cl)ccc(F)c1Cl [Crizotinib] (partner 1 µM)
In short: (§1)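 Lung cancer cell lines were seeded in 1536-well plates and dosed by pin tool the next day, with either a single drug or a fixed anchor-drug dose combined with five library-drug doses (not always all listed) spaced in √10 steps. Five days later, one step fixed the cells and stained their nuclei (final 0.05% Triton X-100, 1% formaldehyde, 1 ug/ml Hoechst), and nuclei were counted on 4× images. Relative viability is the nuclei count in treated wells divided by the count in vehicle wells, and each value is the median of duplicate plates.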

[2] = compound: O=C(/C=C/c1cccnc1)NCCCCC1CCN(C(=O)c2ccccc2)CC1 [Daporinad] + CC(=O)c1c(C)c2cnc(Nc3ccc(N4CCNCC4)cn3)nc2n(C2CCCC2)c1=O [Palbociclib] (partner 0.5 µM)
In short: as §1

[3] = compound: COc1cc(Nc2ncc(F)c(Nc3ccc4c(n3)NC(=O)C(C)(C)O4)n2)cc(OC)c1OC [R406] + C[C@]1(O)C[C@@H](c2nc(-c3ccc4ccc(-c5ccccc5)nc4c3)c3c(N)nccn32)C1 [Linsitinib] (partner 1 µM)
In short: as §1

[4] = compound: O=C(/C=C/c1cccnc1)NCCCCC1CCN(C(=O)c2ccccc2)CC1 [Daporinad] + Nc1ncn([C@H]2C[C@H](O)[C@@H](CO)O2)c(=O)n1 [Decitabine] (partner 2 µM)
In short: as §1

Row | Cell Line | relative viability ([1]; first compound 0.08 µM) | relative viability ([1]; first compound 0.253 µM) | relative viability ([1]; first compound 0.8 µM) | relative viability ([1]; first compound 2.53 µM) | relative viability ([1]; first compound 8 µM) | relative viability ([2]; first compound 0.0005 µM) | relative viability ([2]; first compound 0.001581 µM) | relative viability ([2]; first compound 0.005 µM) | relative viability ([2]; first compound 0.01581 µM) | relative viability ([3]; first compound 0.08 µM) | relative viability ([3]; first compound 0.253 µM) | relative viability ([3]; first compound 0.8 µM) | relative viability ([3]; first compound 2.53 µM) | relative viability ([3]; first compound 8 µM) | relative viability ([4]; first compound 0.0005 µM) | relative viability ([4]; first compound 0.001581 µM) | relative viability ([4]; first compound 0.005 µM) | relative viability ([4]; first compound 0.01581 µM)
1 | 201T | 0.994 | 1.06 | 1.03 | 1.05 | 0.974 | 0.379 | 0.347 | 0.329 | 0.375 | 0.995 | 1.06 | 1.07 | 0.915 | 0.824 | 0.849 | 0.917 | 0.832 | 0.881
2 | A549 | 0.785 | 0.837 | 0.941 | 0.337 | 0.175 | – | – | – | – | 0.52 | 0.659 | 0.619 | 0.584 | 0.418 | 0.227 | 0.252 | 0.234 | 0.161
3 | A-427 | 1 | 1.14 | 0.914 | 0.629 | 0.273 | 0.475 | 0.533 | 0.487 | 0.473 | 1.09 | 1.19 | 1.17 | 1.07 | 0.964 | 0.54 | 0.571 | 0.506 | 0.493
4 | ABC-1 | 1.24 | 1.38 | 1.19 | 0.841 | 0.311 | 0.87 | 0.558 | 0.793 | 0.904 | 0.863 | 1.03 | 0.803 | 0.594 | 0.555 | 0.807 | 1.33 | 0.987 | 0.911
5 | BEN | 0.923 | 1.32 | 1.15 | 0.785 | 0.641 | 0.528 | 0.459 | 0.433 | 0.599 | 0.946 | 1.22 | 0.981 | 0.877 | 0.708 | 0.799 | 0.783 | 0.803 | 0.835
6 | CAL-12T | 0.693 | 0.746 | 0.731 | 0.503 | 0.121 | 0.332 | 0.445 | 0.342 | 0.143 | 0.806 | 0.909 | 0.943 | 0.495 | 0.675 | – | – | – | –
7 | COR-L23 | 0.612 | 0.797 | 0.733 | 0.708 | 0.383 | 0.302 | 0.362 | 0.278 | 0.191 | 0.886 | 1.04 | 1.04 | 0.731 | 0.405 | 0.43 | 0.471 | 0.437 | 0.227
8 | COR-L 105 | 0.955 | 0.89 | 0.822 | 0.8 | 0.263 | 0.395 | 0.401 | 0.37 | 0.44 | 0.968 | 1.13 | 0.879 | 0.705 | 0.736 | 0.692 | 0.601 | 0.612 | 0.6
9 | Calu-6 | 0.697 | 0.954 | 0.909 | 0.494 | 0.36 | – | – | – | – | 0.937 | 1.08 | 1.12 | – | 0.49 | – | – | – | –
10 | ChaGo-K-1 | 1.1 | 0.936 | 1.23 | 1.01 | 0.702 | 0.914 | 0.908 | 0.786 | 0.327 | – | – | – | – | – | 0.534 | 0.532 | 0.355 | 0.246
11 | EBC-1 | 0.155 | 0.231 | 0.153 | 0.209 | 0.166 | – | – | – | – | 1.01 | 1.07 | 1.13 | 0.732 | 0.423 | – | – | – | –
12 | EKVX | 0.949 | 0.986 | 1.09 | 0.867 | 0.806 | 0.435 | 0.379 | 0.423 | 0.465 | 1.05 | 1.32 | 1.19 | 0.9 | 0.688 | 0.307 | 0.391 | 0.36 | 0.359
13 | EMC-BAC-2 | 0.747 | 0.855 | 0.796 | 0.738 | 0.262 | 0.513 | 0.546 | 0.41 | 0.327 | 0.817 | 0.87 | 0.822 | 0.707 | 0.53 | 0.993 | 1.05 | 0.666 | 0.464
14 | EPLC-272H | 0.798 | 1.07 | 1.09 | 0.533 | 0.49 | 0.338 | 0.307 | 0.697 | 0.351 | 1.1 | 1.18 | 1.15 | 0.717 | 0.564 | 0.318 | 0.375 | 0.378 | 0.403
15 | H3255 | 0.82 | 1.13 | 0.873 | 0.761 | 0.77 | 0.308 | 0.322 | 0.344 | 0.33 | 0.84 | 1.08 | 1.04 | 0.8 | 0.725 | 0.464 | 0.605 | 0.863 | 0.816
16 | HARA | 0.902 | 1.06 | 1.13 | 1.09 | 0.376 | 0.258 | 0.263 | 0.308 | 0.238 | 0.772 | 0.991 | 1.04 | 0.819 | 0.288 | 0.351 | 0.496 | 0.442 | 0.207
17 | HCC-15 | 0.837 | 1.01 | 0.834 | – | 0.635 | 0.692 | 0.815 | 0.829 | 0.755 | 0.856 | 0.914 | 1.01 | – | 0.776 | 0.601 | 0.714 | 0.771 | 0.766
18 | HCC-44 | 0.771 | 0.963 | 0.806 | 0.721 | 0.341 | 0.97 | 0.988 | 1.04 | 0.963 | 0.62 | 0.729 | 0.758 | 0.688 | 0.305 | 0.921 | 0.988 | 1.04 | 0.95
19 | HCC-78 | 0.356 | 0.318 | 0.398 | 0.302 | 0.269 | 0.449 | 0.466 | 0.522 | 0.497 | 0.534 | 0.394 | 0.544 | 0.489 | 0.25 | 0.805 | 0.744 | 0.669 | 0.65
